# Publication PMC8948292, “Combining PEGylated mito-atovaquone with MCT and Krebs cycle redox inhibitors as a potential strategy to abrogate tumor cell proliferation” (Scientific Reports, 2022)
# Like-named read-outs stand apart in the source and are kept apart here.
# Tests used:
# Type in all cases: cell-based, human
# [1] = system: MiaPaCa-2 cells; assay: Intracellular oxidants: HPLC of hydroethidine (HE) oxidation products
# Procedure: Hydroethidine (HE) or dihydroethidium was used as a fluorogenic probe to assess the cellular generation of superoxide and other peroxidatic oxidants[36],[37]. Cells were treated for 24 h with Mito-PEG5-ATO alone or in combination with AZD-3965 or CPI-613, followed by 1 h incubation with HE (10 µM). Cells were harvested and the cell pellet stored at − 80 °C until the day of high-performance liquid chromatography (HPLC) analysis. Sample preparation and HPLC analysis were performed as previously reported[32],[36]. 2-OH-E^+ was used as a specific marker for superoxide, and E^+-E^+ was used as a specific marker for intracellular one-electron oxidants[36],[37].
# HE was purchased from Invitrogen (Carlsbad, CA). Stock solutions (20 mM and 5 mM, respectively) were prepared in deoxygenated DMSO (dimethyl sulfoxide) and stored at − 80 °C until use. Ethidium cation (bromide salt) was purchased from Sigma-Aldrich. The hydroxylated oxidation products from HE (2-OH-E^+) were prepared by reacting the probes with Fremy’s salt as previously described in detail[70],[71]. The dimeric products were prepared by reacting the probes with excess potassium ferricyanide, as detailed elsewhere. Synthesized standards of all oxidation products of HE were purified by HPLC. HPLC-based measurements of HE and its oxidation products were performed using an Agilent 1100 system equipped with absorption and fluorescence detectors and refrigerated autosampler (4 °C). The samples (50 µL) were injected into a reverse phase column (Phenomenex, Kinetex C18, 100 mm × 4.6 mm, 2.6 µm) equilibrated with 20% acetonitrile and 80% water containing 0.1% trifluoroacetic acid. The compounds were eluted by increasing the content of acetonitrile from 20 to 56% over 4.5 min at a flow rate of 1.5 mL/min. The absorption detector was used to measure 3,8-diamino-6-phenylphenanthridine (at 290 nm; retention time: 2.5 min), HE-E^+ (at 290 nm; retention time: 4.1 min), E^+-E^+ (at 290 nm; retention time: 4.3 min), and HE (at 370 nm; retention time: 1.6 min). A fluorescence detector (initial excitation at 358 nm and emission at 440 nm) was used to monitor HE (when present at low concentrations). At 2.3 min after injection, the fluorescence parameters were changed (excitation at 490 nm and emission at 567 nm) for sensitive detection of 2-OH-E^+ (retention time: 3.2 min) and E^+ (retention time: 3.3 min).
# [2] = system: MiaPaCa-2 cells; assay: Intracellular ATP, luciferase-based assay
# Procedure: After seeding cells overnight at 2 × 10^4 per well in 96-well plates, cells were treated for 24 h. Intracellular ATP levels were determined in cell lysates using a luciferase-based assay per the manufacturer’s instructions (cat# FLAA, Sigma Aldrich, St. Louis, MO). In brief, the assay starts by rapidly adding an ATP assay mix solution (luciferase and luciferin solution, cat# FLAAM) to cell lysates. This is swirled briskly to mix, and the amount of light produced is immediately measured with a luminometer. The results were normalized to the total protein level measured in each well, as determined by the Bradford method (Bio-Rad Laboratories, Hercules, CA).
# [3] = system: MiaPaCa-2 cells; assay: Cell proliferation (cell confluence), IncuCyte Live-Cell Analysis System; conditions: for IC50: Homo sapiens; for Cell confluence (% of control): control ~90% confluence
# Method in brief: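 MiaPaCa-2 cells in DMEM with 10% FBS, plated at 1,000 cells/well in triplicate and adhered overnight, then treated with Mito-PEG-ATO analogs. Confluence imaged label-free over several days, increase in percent confluence serving as proliferation surrogate.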
smiles,measurement,setting,value
Cc1[nH]nc(C(F)(F)F)c1Cc1sc2c(c1C(=O)N1C[C@](C)(O)CO1)c(=O)n(C)c(=O)n2C(C)C [AZD-3965],"Intracellular oxidant-induced HE-derived products, in combination with Mito-PEG5-ATO","[1]; 24 h, with Mito-PEG5-ATO 0.05 µM, AZD-3965 200 µM or CPI-613 200 µM",modest and additive increase
same,intracellular ATP level,"[2]; AZD-3965 10 µM, Mito-PEG5-ATO 0 µM, 24 h treatment, mean n=4",28.98 nmol ATP/mg protein
same,intracellular ATP level,"[2]; AZD-3965 20 µM, Mito-PEG5-ATO 0 µM, 24 h treatment, mean n=4",29.42 nmol ATP/mg protein
same,intracellular ATP level,"[2]; AZD-3965 30 µM, Mito-PEG5-ATO 0 µM, 24 h treatment, mean n=4",28.90 nmol ATP/mg protein
same,intracellular ATP level,"[2]; AZD-3965 40 µM, Mito-PEG5-ATO 0 µM, 24 h treatment, mean n=4",30.34 nmol ATP/mg protein
same,intracellular ATP level,"[2]; AZD-3965 60 µM, Mito-PEG5-ATO 0 µM, 24 h treatment, mean n=4",30.77 nmol ATP/mg protein
same,intracellular ATP level,"[2]; AZD-3965 80 µM, Mito-PEG5-ATO 0 µM, 24 h treatment, mean n=4",30.40 nmol ATP/mg protein
same,intracellular ATP level,"[2]; AZD-3965 100 µM, Mito-PEG5-ATO 0 µM, 24 h treatment, mean n=4",31.41 nmol ATP/mg protein
same,intracellular ATP level,"[2]; AZD-3965 150 µM, Mito-PEG5-ATO 0 µM, 24 h treatment, mean n=4",32.36 nmol ATP/mg protein
same,intracellular ATP level,"[2]; AZD-3965 200 µM, Mito-PEG5-ATO 0 µM, 24 h treatment, mean n=4",30.51 nmol ATP/mg protein
same,intracellular ATP level,"[2]; AZD-3965 400 µM, Mito-PEG5-ATO 0 µM, 24 h treatment, mean n=4",31.60 nmol ATP/mg protein
same,intracellular ATP level,"[2]; AZD-3965 600 µM, Mito-PEG5-ATO 0 µM, 24 h treatment, mean n=4",31.63 nmol ATP/mg protein
same,IC50,"[3]; MIA PaCa-2, read-out: IC50 (cell proliferation) without Mito-PEG5-ATO",278 µM
same,Inhibition of cell proliferation in combination with Mito-PEG5-ATO (combination index),"[3]; MiaPaCa-2 cells, combined with Mito-PEG5-ATO",synergistic
same,% changes of IC50 with vs without Mito-PEG5-ATO,"[3]; MiaPaCa-2 cells, heat map Fig. 7d",52.5%
"O=C1C(OCCOCCOCCOCCOCC[P+](c2ccccc2)(c2ccccc2)c2ccccc2)=C([C@H]2CC[C@H](c3ccc(Cl)cc3)CC2)C(=O)c2ccccc21.[Br-] [Mito-PEG5-ATO, [14-((3-(trans-4-(4-chlorophenyl)cyclohexyl)-1,4-dioxo-1,4-dihydronaphthalen-2-yl)oxy)-3,6,9,12-tetraoxatetradecyl]triphenylphosphonium bromide]","HE oxidation products 2-OH-E+, E+ and E+-E+","[1]; 24 h treatment, then HE 10 µM 1 h",slight but significant increase
same,Intracellular ATP levels,"[2]; MiaPaCa-2 cells, 24 h, alone and with AZD-3965 or syrosingopine",not due to intracellular ATP depletion
same,intracellular ATP level,"[2]; Mito-PEG5-ATO 0.02 µM, AZD-3965 0 µM, 24 h",34.79 nmol ATP/mg protein
same,intracellular ATP level,"[2]; Mito-PEG5-ATO 0.02 µM, syrosingopine 0 µM, 24 h",33.08 nmol ATP/mg protein
same,intracellular ATP level,"[2]; Mito-PEG5-ATO 0.04 µM, AZD-3965 0 µM, 24 h",29.69 nmol ATP/mg protein
same,intracellular ATP level,"[2]; Mito-PEG5-ATO 0.04 µM, syrosingopine 0 µM, 24 h",29.16 nmol ATP/mg protein
same,intracellular ATP level,"[2]; Mito-PEG5-ATO 0.06 µM, AZD-3965 0 µM, 24 h",29.11 nmol ATP/mg protein
same,intracellular ATP level,"[2]; Mito-PEG5-ATO 0.06 µM, syrosingopine 0 µM, 24 h",28.90 nmol ATP/mg protein
same,intracellular ATP level,"[2]; Mito-PEG5-ATO 0.08 µM, AZD-3965 0 µM, 24 h",28.15 nmol ATP/mg protein
same,intracellular ATP level,"[2]; Mito-PEG5-ATO 0.08 µM, syrosingopine 0 µM, 24 h",27.83 nmol ATP/mg protein
same,intracellular ATP level,"[2]; Mito-PEG5-ATO 0.1 µM, AZD-3965 0 µM, 24 h",27.57 nmol ATP/mg protein
same,intracellular ATP level,"[2]; Mito-PEG5-ATO 0.1 µM, syrosingopine 0 µM, 24 h",27.64 nmol ATP/mg protein
same,intracellular ATP level,"[2]; Mito-PEG5-ATO 0.15 µM, AZD-3965 0 µM, 24 h",28.14 nmol ATP/mg protein
same,intracellular ATP level,"[2]; Mito-PEG5-ATO 0.15 µM, syrosingopine 0 µM, 24 h",28.11 nmol ATP/mg protein
same,intracellular ATP level,"[2]; Mito-PEG5-ATO 0.5 µM, AZD-3965 0 µM, 24 h",26.75 nmol ATP/mg protein
same,intracellular ATP level,"[2]; Mito-PEG5-ATO 0.5 µM, syrosingopine 0 µM, 24 h",26.12 nmol ATP/mg protein
same,IC50,"[3]; MIA PaCa-2, read-out: IC50, antiproliferative",0.038 µM
same,Cell confluence (% of control),"[3]; MiaPaCa-2 cells, 0.003 µM",94.98 % of control
same,Cell confluence (% of control),"[3]; MiaPaCa-2 cells, 0.01 µM",93.81 % of control
same,Cell confluence (% of control),"[3]; MiaPaCa-2 cells, 0.03 µM",74.87 % of control
same,Cell confluence (% of control),"[3]; MiaPaCa-2 cells, 0.05 µM",41.88 % of control
same,Cell confluence (% of control),"[3]; MiaPaCa-2 cells, 0.1 µM",7.64 % of control
same,Cell confluence (% of control),"[3]; MiaPaCa-2 cells, 0.2 µM",4.52 % of control
same,Cell confluence (% of control),"[3]; MiaPaCa-2 cells, 0.3 µM",4.07 % of control
same,Cell confluence (% of control),"[3]; MiaPaCa-2 cells, 0.5 µM",3.75 % of control
same,Cell confluence (% of control),"[3]; MiaPaCa-2 cells, 1 µM",3.53 % of control
same,Cell confluence (% of control),"[3]; MiaPaCa-2 cells, 3 µM",2.64 % of control
same,Cell confluence (% of control),"[3]; MiaPaCa-2 cells, 10 µM",2.40 % of control
